From patent US9650395B2, “Antibacterial compounds and methods for use” (PTC Therapeutics, Inc., priority 2011, dated 2017)
Converted amounts (≈) assume the structure as drawn. Like-named read-outs stand apart in the source and are kept apart here.

How the values were obtained:
[1] = tested on: super sensitive Gram-negative Escherichia coli (E. coli) BAS849; test: Antibacterial activity, microbroth dilution MIC, E. coli BAS849; format: cell-based; details: Escherichia coli, read-out: MIC, BAS849
[2] = tested on: Moraxella catarrhalis (M. catarrhalis) 25238; test: Antibacterial activity, MIC, M. catarrhalis 25238; format: cell-based; details: Moraxella catarrhalis, M. catarrhalis 25238; read-out: MIC 25238
[3] = tested on: quinolone resistant E. coli LZ3111; test: Antibacterial activity, MIC, quinolone resistant E. coli LZ3111; format: cell-based, Escherichia coli; details: Escherichia coli, read-out: MIC, LZ3111
Excerpt: (§1) The antibacterial activity from a microbroth dilution method may be presented as the minimum inhibitory concentration (MIC in […]). The MIC value is the lowest concentration of a drug which prevents macroscopically visible bacterial growth under test conditions.
Mutations in these regions are known to confer a high level resistance to the quinolone class of antibiotics.

[4] = tested on: E. coli ELZ4000 (MDR clinical isolate); test: Antibacterial activity, MIC, MDR E. coli ELZ4000; format: cell-based, Escherichia coli; details: Escherichia coli; E. coli ELZ4000, MDR clinical isolate; read-out: MIC ELZ4000
[5] = tested on: E. coli ELZ4251 (MDR clinical isolate); test: Antibacterial activity, MIC, MDR E. coli ELZ4251; format: cell-based, Escherichia coli; details: Escherichia coli, E. coli ELZ4251, MDR clinical isolate; read-out: MIC ELZ4251
[6] = tested on: Haemophilus influenzae (H. influenzae) 49247; test: Antibacterial activity, MIC, H. influenzae 49247; format: cell-based; details: Haemophilus influenzae; H. influenzae 49247; read-out: MIC 49247
Excerpt: as §1
Antibacterial activity of test compounds against the Gram-negative bacteria Haemophilus influenzae (H. influenzae) 49247, Moraxella catarrhalis (M. catarrhalis) 25238 and Neisseria meningitidis (N. meningitidis) 13090 is shown in Table 6.

[7] = tested on: Gram-positive Staphylococcus aureus (S. aureus) 29213; test: Antibacterial activity, microbroth dilution MIC, S. aureus 29213; format: cell-based; details: Staphylococcus aureus; S. aureus 29213, microbroth dilution; read-out: MIC, 29213
[8] = tested on: Neisseria meningitidis (N. meningitidis) 13090; test: Antibacterial activity, MIC, N. meningitidis 13090; format: cell-based; details: Neisseria meningitidis; N. meningitidis 13090; read-out: MIC 13090
[9] = tested on: control Gram-negative E. coli 25922 strain; test: Antibacterial activity, microbroth dilution MIC, E. coli 25922; format: cell-based, Escherichia coli; details: Escherichia coli; E. coli 25922, microbroth dilution; read-out: MIC, 25922
[10] = tested on: Pseudomonas aeruginosa (P. aeruginosa) 27853; test: Antibacterial activity, MIC, P. aeruginosa 27853; format: cell-based; details: Pseudomonas aeruginosa, P. aeruginosa 27853; read-out: MIC 27853
Excerpt: as §1
Antibacterial activity of test compounds against the Gram-negative bacterium Pseudomonas aeruginosa (P. aeruginosa) 27853 is shown in Table 5.

[11] = E. coli BAS849, microbroth dilution

For `CCc1c(-c2ccc(N(C)C)s2)[nH]c(=O)c(C(=O)O)c1O` [Cpd 306, 6-[5-(dimethylamino)thiophen-2-yl]-5-ethyl-4-hydroxy-2-oxo-1,2-dihydropyridine-3-carboxylic acid], the MIC [1, 11] was < 1 µg/mL, the MIC [2] was < 1 µg/mL and the MIC [3] was 12.5 to 150 µg/mL (≈ 40.5 to 486 µM). The MIC [4] was 12.5 to 150 µg/mL (≈ 40.5 to 486 µM), the MIC [5] was 12.5 to 150 µg/mL (≈ 40.5 to 486 µM) and the MIC [6] was < 1 µg/mL. The MIC [7] was 3.5 to 12.5 µg/mL (≈ 11.4 to 40.5 µM), the MIC [8] was < 1 µg/mL and the MIC [9] was 3.5 to 12.5 µg/mL (≈ 11.4 to 40.5 µM).

For `CCc1cc(C(=O)O)c(=O)[nH]c1-c1ccc(N2CC[C@H](N)C2)cc1.Cl` [Cpd 132, 6-{4-[(3S)-3-aminopyrrolidin-1-yl]phenyl}-5-ethyl-2-oxo-1,2-dihydropyridine-3-carboxylic acid hydrochloride], the MIC [1, 11] was < 1 µg/mL, the MIC [2] was < 1 µg/mL and the MIC [3] was 12.5 to 150 µg/mL. For the same molecule, the MIC [4] was 12.5 to 150 µg/mL, the MIC [5] was 12.5 to 150 µg/mL and the MIC [6] was < 1 µg/mL. The MIC [7] was 3.5 to 12.5 µg/mL, the MIC [8] was < 1 µg/mL and the MIC [9] was 1 to 3.5 µg/mL.

In the case of `CCc1cc(C(=O)O)c(=O)[nH]c1-c1ccc(N2CC[C@@H](N(C)C)C2)cc1.O=C(O)C(F)(F)F` [Cpd 150, 6-{4-[(3R)-3-(dimethylamino)pyrrolidin-1-yl]phenyl}-5-ethyl-2-oxo-1,2-dihydropyridine-3-carboxylic acid trifluoroacetate], the MIC [1] is reported as < 1 µg/mL, the MIC [2] is reported as < 1 µg/mL and the MIC [3] is reported as 12.5 to 150 µg/mL. For the same molecule, the MIC [4] was 12.5 to 150 µg/mL, the MIC [5] was 12.5 to 150 µg/mL and the MIC [6] was < 1 µg/mL. The MIC [7] was 12.5 to 150 µg/mL, the MIC [8] was < 1 µg/mL and the MIC [10] was 12.5 to 150 µg/mL. For the same molecule, the MIC [9] was 1 to 3.5 µg/mL.

For `CCc1cc(C(=O)O)c(=O)[nH]c1-c1ccc(N2CC[C@@H](F)C2)cc1` [Cpd 154, 5-ethyl-6-{4-[(3R)-3-fluoropyrrolidin-1-yl]phenyl}-2-oxo-1,2-dihydropyridine-3-carboxylic acid], the MIC [1, 11] was < 1 µg/mL, the MIC [2] was < 1 µg/mL and the MIC [3] was 12.5 to 150 µg/mL (≈ 37.8 to 454 µM). The MIC [4] was 12.5 to 150 µg/mL (≈ 37.8 to 454 µM), the MIC [5] was 12.5 to 150 µg/mL (≈ 37.8 to 454 µM) and the MIC [6] was < 1 µg/mL. For the same molecule, the MIC [7] was 3.5 to 12.5 µg/mL (≈ 10.6 to 37.8 µM), the MIC [8] was < 1 µg/mL and the MIC [10] was 12.5 to 150 µg/mL (≈ 37.8 to 454 µM). The MIC [9] was 1 to 3.5 µg/mL (≈ 3.03 to 10.6 µM).

For `CCc1cc(C(=O)O)c(=O)[nH]c1-c1ccc(N2CCC(F)(F)C2)cc1` [Cpd 144, 6-[4-(3,3-difluoropyrrolidin-1-yl)phenyl]-5-ethyl-2-oxo-1,2-dihydropyridine-3-carboxylic acid], the MIC [1, 11] was < 1 µg/mL, the MIC [2] was < 1 µg/mL and the MIC [3] was 12.5 to 150 µg/mL (≈ 35.9 to 431 µM). The MIC [4] was 12.5 to 150 µg/mL (≈ 35.9 to 431 µM), the MIC [5] was 12.5 to 150 µg/mL (≈ 35.9 to 431 µM) and the MIC [6] was < 1 µg/mL. For the same molecule, the MIC [7] was 3.5 to 12.5 µg/mL (≈ 10 to 35.9 µM), the MIC [8] was < 1 µg/mL and the MIC [10] was 12.5 to 150 µg/mL (≈ 35.9 to 431 µM). The MIC [9] was 1 to 3.5 µg/mL (≈ 2.87 to 10 µM).

`CCc1cc(C(=O)O)c(=O)[nH]c1-c1ccc(N(C)CCO)cc1` [Cpd 17, 5-ethyl-6-{4-[(2-hydroxyethyl)(methyl)amino]phenyl}-2-oxo-1,2-dihydropyridine-3-carboxylic acid] was tested, and the MIC [1, 11] was < 1 µg/mL, the MIC [2] was < 1 µg/mL and the MIC [3] was 12.5 to 150 µg/mL (≈ 39.5 to 474 µM). For the same molecule, the MIC [4] was 12.5 to 150 µg/mL (≈ 39.5 to 474 µM), the MIC [5] was 12.5 to 150 µg/mL (≈ 39.5 to 474 µM) and the MIC [6] was < 1 µg/mL. For the same molecule, the MIC [7] was 12.5 to 150 µg/mL (≈ 39.5 to 474 µM), the MIC [8] was < 1 µg/mL and the MIC [9] was 3.5 to 12.5 µg/mL (≈ 11.1 to 39.5 µM).

With `CCc1c(-c2ccc(N3CCC3)cc2)[nH]c(=O)c(C(=O)O)c1O` [Cpd 83, 6-[4-(azetidin-1-yl)phenyl]-5-ethyl-4-hydroxy-2-oxo-1,2-dihydropyridine-3-carboxylic acid] the MIC [1, 11] was < 1 µg/mL, the MIC [2] was < 1 µg/mL and the MIC [3] was 12.5 to 150 µg/mL (≈ 39.8 to 477 µM). The MIC [4] was 12.5 to 150 µg/mL (≈ 39.8 to 477 µM), the MIC [5] was 12.5 to 150 µg/mL (≈ 39.8 to 477 µM) and the MIC [6] was < 1 µg/mL. For the same molecule, the MIC [7] was 3.5 to 12.5 µg/mL (≈ 11.1 to 39.8 µM), the MIC [8] was < 1 µg/mL and the MIC [10] was 12.5 to 150 µg/mL (≈ 39.8 to 477 µM). It also gave an MIC [9] of 3.5 to 12.5 µg/mL (≈ 11.1 to 39.8 µM).

`CCc1cc(C(=O)O)c(=O)[nH]c1-c1ccc(N2CC[C@H](N(C)C)C2)cc1.Cl` [Cpd 151, 6-{4-[(3S)-3-(dimethylamino)pyrrolidin-1-yl]phenyl}-5-ethyl-2-oxo-1,2-dihydropyridine-3-carboxylic acid hydrochloride] was tested, and the MIC [1, 11] was < 1 µg/mL, the MIC [2] was < 1 µg/mL and the MIC [3] was 12.5 to 150 µg/mL. For the same molecule, the MIC [4] was 12.5 to 150 µg/mL, the MIC [5] was 12.5 to 150 µg/mL and the MIC [6] was < 1 µg/mL. The MIC [7] was 12.5 to 150 µg/mL, the MIC [8] was < 1 µg/mL and the MIC [10] was 12.5 to 150 µg/mL. The MIC [9] was 1 to 3.5 µg/mL.
